From patent US6589970B2, “6-(aryl-amido or aryl-amidomethyl)-naphthalen-2-yloxy-acidic derivatives as inhibitors of plasminogen activator inhibitor type-1 (PAI-1)” (Wyeth, priority 2001, dated 2003)

Target: T1, recombinant human plasminogen activator inhibitor-1 (PAI-1) (Homo sapiens, UniProt P05121)
T1 construct: purchased Molecular Innovations, Royal Oak, Mich
Test: Primary Screen for the PAI-1 Inhibition
Type: biochemical
Conditions: for % Inhib. 100 μM / inhibition at 100 µM: 100 μM test compound; for inhibition at 25 µM / % Inhib. 25 μM: 25 μM test compound; for inhibition at 25 µM: read-out: % Inhib. 25 μM; for inhibition at 100 µM: read-out: % Inhib. 100 μM
Experimental: Test compounds are dissolved in DMSO at a final concentration of 10 mM, then diluted 100× in physiologic buffer. The inhibitory assay is initiated by the addition of the test compound (1-100 μM final concentration, maximum DMSO concentration of 0.2%) in a pH 6.6 buffer containing 140 nM recombinant human plasminogen activator inhibitor-1 (PAI-1; Molecular Innovations, Royal Oak, Mich.). Following a 1 hour incubation at room temperature, 70 nM of recombinant human tissue plasminogen activator (tPA) is added, and the combination of the test compound, PAI-1 and tPA is incubated for an additional 30 minutes. Following the second incubation, Spectrozyme-tPA (American Diagnostica, Greenwich, Conn.), a chromogenic substrate for tPA, is added and absorbance read at 405 nm at 0 and 60 minutes. Relative PAI-1 inhibition is equal to the residual tPA activity in the presence of the test compound and PAI-1. Control treatments include the complete inhibition of tPA by PAI-1 at the molar ratio employed (2:1), and the absence of any effect of the test compound on tPA alone.

T1 sequence (P05121 24-402): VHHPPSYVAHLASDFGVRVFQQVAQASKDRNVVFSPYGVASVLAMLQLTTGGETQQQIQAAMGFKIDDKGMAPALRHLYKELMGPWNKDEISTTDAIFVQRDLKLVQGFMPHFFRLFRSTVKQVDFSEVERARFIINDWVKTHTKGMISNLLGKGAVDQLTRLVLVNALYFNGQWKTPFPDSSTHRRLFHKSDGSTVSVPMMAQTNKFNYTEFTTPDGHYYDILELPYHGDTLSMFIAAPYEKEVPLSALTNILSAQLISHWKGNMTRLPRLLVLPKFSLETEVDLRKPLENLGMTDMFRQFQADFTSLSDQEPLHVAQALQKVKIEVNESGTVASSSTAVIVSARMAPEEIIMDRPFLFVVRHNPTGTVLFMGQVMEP

SMILES	% Inhib. 100 μM [%]	inhibition at 25 µM [%]	inhibition at 100 µM [%]	% Inhib. 25 μM [%]
O=C(O)COc1ccc2cc(CNC(=O)c3cc4ccccc4o3)ccc2c1 [Example 1]	23			
O=C(O)COc1ccc2cc(NC(=O)c3cc(-c4ccc(-c5ccccc5)cc4)oc3C(F)(F)F)ccc2c1 [Example 78, {6-[(5-Biphenyl-4-yl-2-trifluoromethyl-furan-3-carbonyl)-amino]-naphthalen-2-yloxy}-acetic acid]		24	51	
O=C(NCc1ccc2cc(OCc3nn[nH]n3)ccc2c1)c1cc2ccccc2o1 [Example 2]	52			21
O=C(O)COc1ccc2cc(NC(=O)c3cc(-c4ccccc4Cl)oc3C(F)(F)F)ccc2c1 [Example 73, (6-{[5-(2-Chloro-phenyl)-2-trifluoromethyl-furan-3-carbonyl]-amino}naphthalen-2-yloxy)-acetic acid]		23	65	
O=C(O)COc1ccc2cc(NC(=O)c3ccccc3OCc3ccccc3)ccc2c1 [Example 76]	54			0
O=C(O)COc1ccc2cc(NC(=O)C3(c4ccc(Cl)cc4)CCCC3)ccc2c1 [Example 75, (6-{[1-(4-Chloro-phenyl)-cyclopentanecarbonyl]-amino}-naphthalen-2-yloxy)-acetic acid]		1	55	
CC(C)(C)c1cc(C(=O)NCc2ccc3cc(OCC(=O)O)ccc3c2)cc(C(C)(C)C)c1 [Example 86, {6-[(3,5-Di-tert-butyl-benzoylamino)methyl]-naphthalen-2-yloxy}-acetic acid]			33	
O=C(O)COc1ccc2cc(CNC(=O)c3ccc(-c4cccc(C(F)(F)F)c4)o3)ccc2c1 [Example 85, [6-({[5-(3-Trifluoromethyl-phenyl)-furan-2-carbonyl]-amino}-methyl)-naphthalen-2-yloxy]-acetic acid]			34	
O=C(O)COc1ccc2cc(CNC(=O)c3cc(-c4ccc(Cl)cc4)oc3C(F)(F)F)ccc2c1 [Example 11, [6-({[5-(4-Chloro-phenyl)-2-trifluoromethyl-furan-3-carbonyl]-amino}-methyl)-naphthalen-2-yloxy]-acetic acid]			32	
O=C(O)COc1ccc2cc(CNC(=O)c3cnn(-c4ccc(Cl)cc4)c3C(F)(F)F)ccc2c1Br [Example 16, [1-Bromo-6-({[1-(4-chloro-phenyl)-5-trifluoromethyl-1H-pyrazole-4-carbonyl]-amino}-methyl)-naphthalen-2-yloxy]-acetic acid]		12	85	
CC(C)(C)c1cc(C(=O)Nc2ccc3cc(OCC(=O)O)ccc3c2)cc(C(C)(C)C)c1 [Example 77, [6-(3,5-Di-tert-butyl-benzoylamino)-naphthalen-2yloxy]-acetic acid]		27	51	
O=C(O)COc1ccc2cc(CNC(=O)c3cc(-c4ccc(C(F)(F)F)cc4)oc3C(F)(F)F)ccc2c1 [Example 82, [6-({[2-Trifluoromethyl-5-(4-trifluoromethyl-phenyl)-furan-3-carbonyl]-amino}methyl)-naphthalen-2-yloxy]-acetic acid]		9	68	
CCCc1c(C(=O)NCc2ccc3cc(OCC(=O)O)ccc3c2)cnn1-c1ccccc1 [Example 12, (6-{[(1-phenyl-5-propyl-1H-pyrazole-4-carbonyl)-amino]-methyl}-naphthalen-2-yloxy)-acetic acid]		5	66	
O=C(O)COc1ccc2cc(CNC(=O)C3(c4ccc(Cl)cc4)CCCC3)ccc2c1 [Example 84, [6-({[1-(4-Chloro-phenyl)-cyclopentanecarbonyl]-amino}-methyl)-naphthalen-2-yloxy]-acetic acid]			34	
CN(Cc1ccc2c(Br)c(OCc3nnn[nH]3)ccc2c1)C(=O)c1ccc(Oc2cc(Cl)cc(Cl)c2)o1 [Example 38, 5-(3,5-Dichloro-phenoxy)-furan-2-carboxylic acid [5-bromo-6-(1H-tetrazol-5-ylmethoxy)-naphthalen-2-ylmethyl]-methyl-amide]		47	81	
O=C(O)COc1ccc2cc(NC(=O)C3(c4ccc(Cl)cc4)CCC3)ccc2c1 [Example 80, (6-{[1-(4-Chloro-phenyl)-cyclobutanecarbonyl]-amino}-naphthalen-2-yloxy)-acetic acid]			48	
O=C(O)COc1ccc2cc(NC(=O)c3ccc(-c4cccc(C(F)(F)F)c4)o3)ccc2c1 [Example 74, (6-{[5-(3-Trifluoromethyl-phenyl)-furan-2-carbonyl]-amino}-naphthalen-2-yloxy)-acetic acid]		20	59	

Results, then the compound that gave them:

% Inhib. 100 μM [%]	inhibition at 25 µM [%]	inhibition at 100 µM [%]	% Inhib. 25 μM [%]	SMILES
78			47	O=C(O)C(Cc1ccccc1)Oc1ccc2cc(CN(Cc3ccccc3)C(=O)c3ccc(C4CCCCC4)cc3)ccc2c1Br (centres unmarked) [Example 71]
44				O=C(O)C(Cc1ccccc1)Oc1ccc2cc(CNC(=O)C3(c4ccc(Cl)cc4)CCCC3)ccc2c1Br (centres unmarked) [Example 59]
	17	81		CCCc1ccc(-c2ccc(C(=O)N(Cc3ccccc3)Cc3ccc4c(Br)c(OC(Cc5ccccc5)C(=O)O)ccc4c3)cc2)cc1 (centres unmarked) [Example 70, 2-(6-{[Benzyl-(4′-propyl-biphenyl-4-carbonyl)-amino]-methyl}-1-bromo-naphthalen-2-yloxy)-3-phenyl propionic acid]
		45		O=C(O)COc1ccc2cc(CNC(=O)c3ccccc3CCc3ccccc3)ccc2c1 [Example 83, {6-[(2-Phenethyl-benzoylamino)-methyl]-naphthalen-2-yloxy}-acetic acid]
	1	84		CCCCc1oc2ccccc2c1C(=O)N(C)Cc1ccc2c(Br)c(OC(Cc3ccccc3)C(=O)O)ccc2c1 (centres unmarked) [Example 62, 2-(1-Bromo-6-{[(2-butyl-benzofuran-3-carbonyl)-methyl-amino]-methyl}naphthalen-2-yloxy)-3-phenyl-propionic acid]
	63	79		Cc1c(C(=O)N(C)Cc2ccc3c(Br)c(OCC(Cc4ccccc4)C(=O)O)ccc3c2)oc2ccccc12 (centres unmarked) [Example 42, Sodium; 2-benzyl-3-(1-bromo-6-{[methyl-(3-methyl-benzofuran-2-carbonyl)-amino]-methyl}-naphthalen-2-yloxy)-propionate]
	60	96		CCCCc1c(C(=O)N(C)Cc2ccc3c(Br)c(OCC(Cc4ccccc4)C(=O)O)ccc3c2)oc2ccccc12 (centres unmarked) [Example 40, 2-Benzyl-3-(1-bromo-6-{[(3-butyl-benzofuran-2-carbonyl)-methyl-amino]-methyl}-naphthalen-2-yloxy)-propionic acid]
		32		CCCCc1oc2ccccc2c1C(=O)NCc1ccc2c(Br)c(OCC(=O)O)ccc2c1 [Example 19, Sodium; (1-bromo-6-{[(2-butyl-benzofuran-3-carbonyl)-amino]-methyl}-naphthalen-2-yloxy)-acetate]
	14	69		CCCc1ccc(-c2ccc(C(=O)N(C)Cc3ccc4c(Br)c(OC(Cc5ccccc5)C(=O)O)ccc4c3)cc2)cc1 (centres unmarked) [Example 63, 2-(1-Bromo-6-{[methyl-(4′-propyl-biphenyl-4-carbonyl)-amino]-methyl}-naphthalen-2-yloxy)-3-phenyl-propionic acid]
68			56	CCCc1c(C(=O)N(Cc2ccccc2)Cc2ccc3c(Br)c(OC(Cc4ccccc4)C(=O)O)ccc3c2)cnn1-c1ccccc1 (centres unmarked) [Example 72, 2-(6-{[Benzyl-(1-phenyl-5-propyl-1H-pyrozole-4-carbonyl)-amino]-methyl}-1-bromo-naphthalen-2-yloxy)-3-phenyl-propionic acid]
	5	92		CCCc1c(C(=O)NCc2ccc3c(Br)c(OCC(=O)O)ccc3c2)cnn1-c1ccccc1 [Example 15, (1-Bromo-6-{[(1-phenyl-5-propyl-1H-pyrazole-4-carbonyl)-amino]-methyl}-naphthalen-2-yloxy)-acetic acid]
	24	75		CN(Cc1ccc2c(Br)c(OC(Cc3ccccc3)C(=O)O)ccc2c1)C(=O)c1ccc(C2CCCCC2)cc1 (centres unmarked) [Example 61, 2-(1-Bromo-6-{[(4cyclohexyl-benzoyl)-methyl-amino]-methyl}-naphthalen-2-yloxy)-3-phenyl-propionic acid]
30				O=C(NCc1ccc2c(Br)c(OC(Cc3ccccc3)C(=O)O)ccc2c1)c1ccc(-c2cccc(C(F)(F)F)c2)o1 (centres unmarked) [Example 60]
		29		CCc1oc2ccccc2c1C(=O)NCc1ccc2c(Br)c(OC(Cc3ccccc3)C(=O)O)ccc2c1 (centres unmarked) [Example 58, 2-(1-Bromo-6-{[(2-ethyl-benzofuran-3-carbonyl)-amino]-methyl}-naphthalen-2-yloxy)-3-phenyl-propionic acid]
	46	95		CCCc1c(C(=O)N(C)Cc2ccc3c(Br)c(OC(Cc4ccccc4)C(=O)O)ccc3c2)cnn1-c1ccccc1 (centres unmarked) [Example 66, 2-(1-Bromo-6-{[methyl-(1-phenyl-5-propyl-1H-pyrazole-4-carbonyl)-amino]-methyl}-naphthalen-2-yloxy)-3-phenyl-propionic acid]
